In PubChem BioAssay AID1117319 (Southern Research Institute, 2015):
Inconclusive results are not listed.

Target: Virion infectivity factor (Human immunodeficiency virus type 1 group M subtype B (isolate BH10)) + Virion infectivity factor (Human immunodeficiency virus type 1 group M subtype B (isolate BRU/LAI)) + Virion infectivity factor (Human immunodeficiency virus type 1 group M subtype B (isolate PCV12)) + Virion infectivity factor (Human immunodeficiency virus type 1 group M subtype B (isolate HXB2)) + DNA dC->dU-editing enzyme APOBEC-3G (Homo sapiens) (UniProt P69720+P69721+P69722+P69723+Q9HC16)
Assay: HIV-1 Vif–A3G interaction blockers – biochemical, TR-FRET, GST-Vif 1-94, biotin-A3G peptide, dose response retest, primary screen (AID 1117319);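 note: Vif residues 1-94 fused to GST binding biotinylated APOBEC3G peptide 110-148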
Settings: TR-FRET GST-Vif / biotin-A3G peptide binding

CN(C)[C@@H]1C(=O)C(C(N)=O)=C(O)[C@@]2(O)C(=O)C3=C(O)c4c(O)ccc(Cl)c4[C@@](C)(O)C3C[C@@H]12 (some centres undefined) was tested, and the IC50 was 7.02 µM.
In the case of Cc1cc2c(=Cc3ccc(N(C)C)cc3)c3ccccc3n2[n+]1C, the IC50 is reported as 16.9 µM.
Molecule Cc1ccc(C)n1Cc1ccc(C(=O)O)cc1 has an IC50 of 1.55 µM.
CCOC(=O)N1CCN(c2ccc(O)cc2)CC1 was tested, and the IC50 was 16.8 µM.
O=c1cc(-c2ccccc2Cl)c2c([nH]1)CCC2 was tested, and the IC50 was 4.31 µM.
O=c1cc(-c2ccc(O)c(O)c2)oc2cc(O)c(C3OC(CO)C(O)C(O)C3O)c(O)c12 (centres undefined) was tested, and the IC50 was 12.7 µM.
In the case of CCOC(=O)C1CCCN(c2ncnc3c2cnn3-c2ccc(Cl)cc2)C1 (centres undefined), the IC50 is reported as 36 µM.
COc1cc(-c2cccs2)cc(=O)c2c(C)oc(C)c12 showed an IC50 of 3.55 µM.
In the case of Cc1cccc2c1c1ccc3c(c1n2C)C(=O)C=CC3=O, the IC50 is reported as 7.63 µM.
CCCCOc1ccccc1C1NC(=O)NC(C)=C1C(=O)OCc1ccco1 (centres undefined) showed an IC50 of 57.3 µM.
In the case of CN(C)c1ccc(O)c2c1CC1CC3[C@@H](N(C)C)C(=O)C(C(N)=O)=C(O)[C@]3(O)C(=O)C1=C2O (some centres undefined), the IC50 is reported as 1.07 µM.
Molecule Oc1ccc(/C=N/N2CCOCC2)c(O)c1O has an IC50 of 12.5 µM.
With COc1ccc(NC(=O)CC2Nc3cccc4cccc(c34)NC2=O)cc1 (centres undefined) the IC50 was 1.21 µM.
O=C(Cc1cccs1)N/N=C/C=C/c1ccco1 showed an IC50 of 3.68 µM.
For C=CCN1CCc2cccc3c2[C@H]1Cc1ccc(O)c(O)c1-3, the IC50 was 14.8 µM.
COc1cccc2c1NC(C(=O)O)C1CC=CC21 (centres undefined) showed an IC50 of under 0.398 µM.
For Cc1cc2nc(C)n(CCCNC(=O)Nc3ccc(F)cc3)c2cc1C, the IC50 was 47.6 µM.
CC(C)(C)C(=O)OCc1nc(-c2ccc(O)c(O)c2)cs1 gave an IC50 of 17.1 µM.
For Cc1cc(F)ccc1S(=O)(=O)Nc1ccccc1C(=O)Nc1ccc2[nH]c(=O)[nH]c2c1, the IC50 was 78 µM.
O=C1CCCC(O)=C1N=Nc1cccc(C(=O)O)c1 gave an IC50 of 5.61 µM.
With O=C(O)C1Nc2ccc(Br)cc2C2C=CCC12 (centres undefined) the IC50 was 1.56 µM.
COc1cc(CN2CCNC(=O)C2CC(=O)N(Cc2nccn2C)C(C)C)cc(OC)c1 (centres undefined) gave an IC50 of 28.3 µM.
CC1(C)Cc2nc3sc4c(SCC(=O)NCc5ccco5)ncnc4c3cc2CO1 was tested, and the IC50 was 79.5 µM.
For Cc1onc(-c2ccccc2Cl)c1C(=O)N1CCN(c2cccc(Cl)c2)CC1, the IC50 was 95.4 µM.
For CN1CCc2cccc3c2[C@@H]1Cc1ccc(O)c(O)c1-3, the IC50 was 1.66 µM.
Work on O=C1NC(=O)N(c2ccccc2)C(=O)/C1=C\c1ccc([N+](=O)[O-])s1 yielded an IC50 of 13.4 µM.
O=C(CCc1ccc(S(=O)(=O)NCCc2ccccc2)cc1)Nc1ccc2c(c1)OCO2 was tested, and the IC50 was 43.5 µM.
Cn1nnnc1SCC(=O)NCc1ccco1 gave an IC50 of 42.8 µM.
O=C(O)c1ccc(-n2cccc2/C=C2/NC(=O)N(c3cccc(Cl)c3)C2=O)cc1 showed an IC50 of 1.71 µM.
Molecule O=c1[nH]nc(CNc2ccc(O)cc2)c2ccccc12 has an IC50 of 3.45 µM.
O=C(O)c1ccc(Sc2nnnn2-c2ccccc2)c([N+](=O)[O-])c1 was tested, and the IC50 was 89.9 µM.
O=C(N/N=C/C=C\c1ccco1)c1cccnc1 gave an IC50 of 4.09 µM.
For CC(=O)N1CCN(c2ccc(NCc3ccc(C)s3)cc2)CC1, the IC50 was 3.13 µM.
Work on Cc1nc2ccccc2n2c(O)c(CC(=O)O)cc12 yielded an IC50 of 30.2 µM.
In the case of Oc1cccc(C=NCc2ccccc2)c1O, the IC50 is reported as 1.9 µM.
C[n+]1cccc2cccc([O-])c21 showed an IC50 of 1.4 µM.
Work on Cc1noc(/C=C/c2ccco2)c1S(=O)(=O)N1CCC(C(=O)NCc2ccco2)CC1 yielded an IC50 of 1.84 µM.
COC(=O)Cc1cc(=O)n(-c2nc3ccccc3[nH]2)[nH]1 gave an IC50 of 21.6 µM.
CCCCCC#CCC#CCC#CCC#CCCCC(=O)O was tested, and the IC50 was 0.86 µM.
Molecule Cc1ccc(S(=O)(=O)Cn2nnnc2C(CC(C)C)N2CCN(C)CC2)cc1 (centres undefined) has an IC50 of 9.85 µM.
Work on Oc1ccc(N=Cc2sc3ccccc3c2Cl)cc1 yielded an IC50 of 3.11 µM.
With CS(=O)(=O)N(CC(=O)Nc1ccc2c(c1)OCO2)Cc1ccccc1 the IC50 was 94.7 µM.
Work on Cc1c(F)cccc1NC(=O)CCCCCC1NC(=O)NC1C (centres undefined) yielded an IC50 of 0.78 µM.
In the case of O=C(COC(=O)c1ccc(NS(=O)(=O)c2cccs2)cc1)NCc1ccco1, the IC50 is reported as 5.88 µM.
C=CCn1c(C)c(C(C)=O)c(N2CCN(c3ccccc3)CC2)nc1=S showed an IC50 of 8.23 µM.
For Cn1cnnc1SCC(=O)Nc1ncc([N+](=O)[O-])s1, the IC50 was 36.1 µM.
CC(Cc1c[nH]c2ccccc12)C(=O)NCc1ccco1 (centres undefined) gave an IC50 of 33 µM.
For Cc1ccc(Cl)cc1N1CCN(C(=O)COc2ccc3c(c2)CCC3)CC1, the IC50 was 45.4 µM.
CC1(CCl)N([O-])C2=C(CCCC2)[N+]1=O (centres undefined) gave an IC50 of 8.49 µM.
Molecule O=c1cc2c(=O)oc3cc(O)c(O)oc3c2c(O)c1O has an IC50 of 1.68 µM.
Cc1cccc(NC(=O)CNC(=O)c2cccc(-n3cccc3)c2)c1C showed an IC50 of 12.2 µM.
Work on CNc1c(C(=O)O)ccc2c1C(=O)c1ccccc1C2=O yielded an IC50 of 25 µM.
With CC1(C)C/C(=C(/C#N)C(N)=O)CCO1 the IC50 was 80.7 µM.
Work on COC(=O)\C(C(C)=O)=C(/C=C/C=C/C=C/N(C)C)N(C)C yielded an IC50 of 2.76 µM.
With Cn1cnnc1SC/C(O)=C(\C#N)c1nc2ccccc2[nH]1 the IC50 was 19.7 µM.
For O=C1NC(=O)N(Cc2ccc(F)cc2)C(=O)/C1=C\C=C\c1ccco1, the IC50 was 19.2 µM.
For CCOc1ccc(NCC2CCOC(C)(C)C2)cc1 (centres undefined), the IC50 was 9.47 µM.
C=CCSC1=N/C(=C\C=C\c2ccco2)C(=O)S1 showed an IC50 of 1.05 µM.
In the case of CC1Cc2ccccc2N1Cc1nc2cc(C(F)(F)F)ccc2c(=O)[nH]1 (centres undefined), the IC50 is reported as 74.5 µM.
CC(C)N1C(=O)CC(Nc2ccc(N3CCOCC3)cc2)C1=O (centres undefined) gave an IC50 of 2.9 µM.
NC(=O)C[C@@H]1N[C@]2(C(=O)Nc3ccccc32)[C@@H]2C(=O)N(c3cc(C(F)(F)F)ccc3Cl)C(=O)[C@H]12 showed an IC50 of 55.5 µM.
For C=C(C)C(=O)Nc1cccc(C2=NOC3(C2)C[C@@H](C(N)=O)N(C(=O)c2cc([N+](=O)[O-])cc([N+](=O)[O-])c2)C3)c1 (some centres undefined), the IC50 was 4.69 µM.
Work on CCOC(=O)c1c2c(n(Cc3ccccc3)c1C)C(=O)C(=O)c1ccccc1-2 yielded an IC50 of 79.5 µM.
Molecule O=C(c1ccc(=O)oc1)N1CCCc2ccccc21 has an IC50 of 38.3 µM.
For Cc1ccc(N2CCN(c3ccc(C)cc3)C2c2ccccn2)cc1, the IC50 was 75.8 µM.
CCc1ccc2nc(N3CCN(C)CC3)c(C#N)cc2c1 gave an IC50 of 33.8 µM.
Work on CN(C)c1ccc(C=c2c3cc([N+](=O)[O-])ccc3n3c2cc(-c2ccccc2)[n+]3C)cc1 yielded an IC50 of 3.58 µM.
Cc1c2ccccc2nc2c(F)c(N(C)C)c(F)c(F)c12 gave an IC50 of 15.7 µM.
With Cc1cnc(NC(=O)CSc2nnc(CNc3ccc(F)cc3)n2CC2CCCO2)s1 (centres undefined) the IC50 was 53 µM.
CCNc1ccc(Br)cc(C(=O)/C=C/c2ccc3c(c2)OCO3)c1=O gave an IC50 of 24.7 µM.
O=C1/C(=C\c2ccco2)SC(=S)N1Cc1ccccc1 showed an IC50 of 3.56 µM.
COc1ccc2[nH]c3c4c(ccc3c2c1)C(=O)C=CC4=O gave an IC50 of 1.42 µM.
Molecule O=C(COC(=O)c1cc(-c2ccco2)nc2ccccc12)NCc1ccc2c(c1)OCO2 has an IC50 of 12.5 µM.
Work on O=C1NC(=O)N(Cc2ccco2)C(=O)/C1=C/C=C/c1ccco1 yielded an IC50 of 0.91 µM.
With O=C(O)CCc1ccc(S(=O)(=O)Nc2cc(C(F)(F)F)ccc2N2CCCC2)cc1 the IC50 was 14.4 µM.
With Oc1cc2c(cc1O)[C@@H](c1ccccc1)CNCC2 the IC50 was 48.1 µM.
C=CC1=C(C(=O)O)N2C(=O)C(NC(=O)Cc3ccccc3)C2SC1 (centres undefined) was tested, and the IC50 was 11.5 µM.
Molecule CCOc1cc(N2CCOCC2)c(OCC)cc1NS(=O)(=O)c1ccc(Cl)s1 has an IC50 of 3.22 µM.
Work on Oc1ccc(N=Cc2ccc(O)c(O)c2)cc1 yielded an IC50 of 0.99 µM.
CCOc1cccc(CNc2ccc(O)cc2)c1OCc1ccccc1Cl was tested, and the IC50 was 6.61 µM.
Cc1c(Br)c(O)c(Br)c2sc(=O)oc12 gave an IC50 of 1.77 µM.
For Cn1c(=O)c2c(ncn2CC(=O)N/N=C/C=C/c2ccco2)n(C)c1=O, the IC50 was 6.39 µM.
For COCCCNC(=O)/C(C#N)=C/c1ccc(OCC(=O)O)c(OC)c1, the IC50 was 4.12 µM.
O=C(O)c1cc(N2N=C(C(F)(F)F)/C(=C/C=C/c3ccco3)C2=O)ccc1Cl was tested, and the IC50 was 1.04 µM.
